Measured values: PubChem BioAssay (NCI)
Several values for one entry are separate records, joined by “and”; a condition that tells them apart may be missing. Identical values can stand only once.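 Compound exposure: 48 hours, 5 concentrations, 96-well plates. GI50 marks 50% less growth. TGI: concentration producing complete growth inhibition.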

Key:
Assay in all cases: NCI tumour cell line growth inhibition, 48 h
[1] = test system: M19-MEL melanoma
[2] = test system: DMS 114 small cell lung
[3] = test system: LXFL 529 NSCLC
[4] = test system: RXF-631 renal
[5] = test system: DMS 273 small cell lung
[6] = test system: XF 498 CNS
[7] = test system: HOP-18 NSCLC
[8] = test system: SN12K1 renal
[9] = test system: P388 leukemia
[10] = test system: P388/ADR leukemia

Compound | TGI [1] | TGI [2] | TGI [3] [nM] | TGI [4] [nM] | TGI [5] | TGI [6] | TGI [7] [nM] | GI50 [8] | TGI [8] | GI50 [1] [nM] | GI50 [2] [nM] | GI50 [9] [nM] | TGI [9] | GI50 [5] [nM] | GI50 [6] [nM] | GI50 [10] [nM] | TGI [10]
N#CC1(CCCI)CCCC1 | 45000 nM | 25300 nM | > 100000 | 3230 | > 100000 nM | 47300 nM | 36300 |  |  |  |  |  |  |  |  |  | 
CC[C@@]1(O)CC(OC2CC(N3CCOCC3)C(O)C(C)O2)c2c(O)c3c(c(O)c2[C@H]1O)C(=O)c1cccc(O)c1C3=O (some centres not stated) | 981 nM and 2140 nM | 968 nM and 1080 nM |  |  | 1100 nM and 393 nM | 278 nM and 362 nM |  | 15.3 nM and 10.2 nM | 403 nM and 297 nM | 71.6 | 52.5 | 0.000179 | 1080 nM and 799 nM | 18 | 34.1 | 4.4 | 2940 nM and 770 nM
C=C(CN(C)C)C(=O)c1ccccc1OC | 32400 nM | 42500 nM | 11500 |  | 34000 nM | 32300 nM | 20200 |  |  |  |  |  |  |  |  |  | 
